The text below walks through data of ChEMBL document CHEMBL5316328, “Discovery of AXL Degraders with Improved Potencies in Triple-Negative Breast Cancer (TNBC) Cells” (J Med Chem, 2023).

SMILES strings stand for the structures. The source made the active and inactive calls. No cut-off for these calls is given here.

Test [1] has as its system MDA-MB-231. In words: Inhibition of migration in human MDA-MB-231 cells at 3.7 to 100 nM incubated for 18 hrs by transwell assay. The note with it: dose 3.7-100 nM. The format is functional, cell-based.
Test [2] has as its system MDA-MB-231. In words: Induction of apoptosis in human MDA-MB-231 cells assessed as viable cells at 33.3 nM incubated for 48 hrs by Annexin V-PE staining based flow cytometric analysis (reference value: 92.59 to 92.71%). It is filed as functional. The note with it: read-out: Activity. In general terms: A flow cytometer gives signals particle by particle.
Test [3] has as its system MDA-MB-231. In words: Induction of cell cycle arrest in human MDA-MB-231 cells assessed as G0/G1 phase cells at 33.3 nM incubated for 24 hrs by PI staining based flow cytometric analysis (reference value: 63.32 to 64.94%). The format is functional.
The test system of test [4] is MDA-MB-231. In words: Induction of cell cycle arrest in human MDA-MB-231 cells assessed as G0/G1 phase cells at 300 nM incubated for 24 hrs by PI staining based flow cytometric analysis (reference value: 63.32 to 64.94%). It is filed as functional.
In test [5] the test system is MDA-MB-231. In words: Induction of cell cycle arrest in human MDA-MB-231 cells assessed as accumulation of cell at G2/M phase at 33.3 nM incubated for 24 hrs by PI staining based flow cytometric analysis (reference value: 24.34 to 24.44%). The format is functional.
Test [6] deals with MDA-MB-231. In words: Induction of apoptosis in human MDA-MB-231 cells assessed as viable cells at 100 nM incubated for 48 hrs by Annexin V-PE staining based flow cytometric analysis (reference value: 92.59 to 92.71%). It is filed as functional. The note with it: read-out: Activity.
The subject of test [7] is MDA-MB-231. In words: Antiproliferative activity against human MDA-MB-231 cells expressing AXL assessed as inhibition of cell growth incubated for 72 hrs by CCK8 assay. It is filed as functional, cell-based. The note with it: MDA-MB-231, 72 h. A general note: Tetrazolium dyes change colour on reduction, which living cells bring about.
The subject of test [8] is MDA-MB-231. In words: Induction of cell cycle arrest in human MDA-MB-231 cells assessed as G0/G1 phase cells at 100 nM incubated for 24 hrs by PI staining based flow cytometric analysis (reference value: 63.32 to 64.94%). The format is functional.
Test [9] has as its system MDA-MB-231. In words: Induction of cell cycle arrest in human MDA-MB-231 cells assessed as decrease in cyclin B1 level at 100 to 300 nM by Western blot analysis. It is filed as functional, cell-based. The note with it: dose 100-300 nM. Background: A western blot detects proteins with antibodies after separation by electrophoresis.
The test system of test [10] is MDA-MB-231. In words: Induction of cell cycle arrest in human MDA-MB-231 cells assessed as S phase cells at 100 nM incubated for 24 hrs by PI staining based flow cytometric analysis (reference value: 9.64 to 10.79%). It is filed as functional.
In test [11] the test system is MDA-MB-231. In words: Induction of cell cycle arrest in human MDA-MB-231 cells assessed as decrease in CDK2 level at 100 to 300 nM by Western blot analysis. It is filed as functional, cell-based. The note with it: dose 100-300 nM.
In test [12] the test system is MDA-MB-231. In words: Induction of cell cycle arrest in human MDA-MB-231 cells assessed as S phase cells at 33.3 nM incubated for 24 hrs by PI staining based flow cytometric analysis (reference value: 9.64 to 10.79%). It is filed as functional.
Test [13] concerns MDA-MB-231. In words: Induction of apoptosis in human MDA-MB-231 cells assessed as necrotic cells at 33.3 nM incubated for 48 hrs by Annexin V-PE staining based flow cytometric analysis (reference value: 2.64 to 3.23%). It is filed as functional.
The subject of test [14] is MDA-MB-231. In words: Induction of cell cycle arrest in human MDA-MB-231 cells assessed as S phase cells at 300 nM incubated for 24 hrs by PI staining based flow cytometric analysis (reference value: 9.64 to 10.79%). It is filed as functional.
Test [15] relates to MDA-MB-231. In words: Induction of apoptosis in human MDA-MB-231 cells assessed as viable cells at 300 nM incubated for 48 hrs by Annexin V-PE staining based flow cytometric analysis (reference value: 92.59 to 92.71%). It is filed as functional. The note with it: read-out: Activity.
The subject of test [16] is MDA-MB-231. In words: Inhibition of cell invasion in human MDA-MB-231 cells at 3.7 to 100 nM incubated for 18 hrs by transwell assay. It is filed as functional, cell-based. The note with it: dose 3.7-100 nM.
Test [17] addresses Serine/threonine-protein kinase AKT (Homo sapiens) (UniProt P31751+Q9Y243+P31749). In words: Inhibition of AKT phosphorylation in human MDA-MB-231 at 1.2 to 100 nM incubated for 18 hrs by Western blot analysis. The note with it: dose 1.2-100 nM. It is filed as cell-based.
The test system of test [18] is MDA-MB-231. In words: Induction of apoptosis in human MDA-MB-231 cells assessed as early apoptotic cells at 100 nM incubated for 48 hrs by Annexin V-PE staining based flow cytometric analysis (reference value: 3.95 to 3.74%). It is filed as functional.
For test [19], the system named is MDA-MB-231. In words: Induction of apoptosis in human MDA-MB-231 cells assessed as late apoptotic cells at 300 nM incubated for 48 hrs by Annexin V-PE staining based flow cytometric analysis (reference value: 0.32 to 0.82%). It is filed as functional.
The subject of the next test is MDA-MB-436. In words: Antiproliferative activity against human MDA-MB-436 cells expressing AXL assessed as inhibition of cell growth incubated for 72 hrs by CCK8 assay. It is filed as functional, cell-based. The note with it: MDA-MB-436, 72 h.
The test system of test [20] is MDA-MB-231. In words: Induction of cell cycle arrest in human MDA-MB-231 cells assessed as accumulation of cell at G2/M phase at 300 nM incubated for 24 hrs by PI staining based flow cytometric analysis (reference value: 24.34 to 24.44%). The format is functional.
For the next test, the system named is MDA-MB-453. In words: Antiproliferative activity against human MDA-MB-453 cells assessed as inhibition of cell growth incubated for 72 hrs by CCK8 assay. It is filed as functional, cell-based. The note with it: MDA-MB-453, 72 h.
Test [21] concerns MDA-MB-231. In words: Induction of apoptosis in human MDA-MB-231 cells assessed as necrotic cells at 300 nM incubated for 48 hrs by Annexin V-PE staining based flow cytometric analysis (reference value: 2.64 to 3.23%). It is filed as functional.
For test [22], the system named is MDA-MB-231. In words: Induction of apoptosis in human MDA-MB-231 cells assessed as late apoptotic cells at 100 nM incubated for 48 hrs by Annexin V-PE staining based flow cytometric analysis (reference value: 0.32 to 0.82%). The format is functional.
The test system of test [23] is MDA-MB-231. In words: Induction of apoptosis in human MDA-MB-231 cells assessed as early apoptotic cells at 300 nM incubated for 48 hrs by Annexin V-PE staining based flow cytometric analysis (reference value: 3.95 to 3.74%). It is filed as functional.
Test [24] relates to MDA-MB-231. In words: Induction of cell cycle arrest in human MDA-MB-231 cells assessed as accumulation of cell at G2/M phase at 100 nM incubated for 24 hrs by PI staining based flow cytometric analysis (reference value: 24.34 to 24.44%). It is filed as functional.
Test [25] deals with MDA-MB-231. In words: Induction of apoptosis in human MDA-MB-231 cells assessed as early apoptotic cells at 33.3 nM incubated for 48 hrs by Annexin V-PE staining based flow cytometric analysis (reference value: 3.95 to 3.74%). The format is functional.
Test [26] addresses ALK tyrosine kinase receptor (Homo sapiens, UniProt Q9UM73). In words: Inhibition of ALK (unknown origin).
Test [27] deals with MDA-MB-231. In words: Induction of apoptosis in human MDA-MB-231 cells assessed as late apoptotic cells at 33.3 nM incubated for 48 hrs by Annexin V-PE staining based flow cytometric analysis (reference value: 0.32 to 0.82%). It is filed as functional.
In test [28] the test system is MDA-MB-231. In words: Induction of apoptosis in human MDA-MB-231 cells assessed as downregulation of caspase-9 expression at 100 to 300 nM by Western blot analysis. The format is functional, cell-based. The note with it: dose 100-300 nM.
Test [29] deals with MDA-MB-231. In words: Induction of apoptosis in human MDA-MB-231 cells assessed as upregulation of cleaved PARP expression at 100 to 300 nM by Western blot analysis. The format is functional, cell-based. The note with it: dose 100-300 nM.
Test [30] deals with MDA-MB-231. In words: Induction of apoptosis in human MDA-MB-231 cells assessed as necrotic cells at 100 nM incubated for 48 hrs by Annexin V-PE staining based flow cytometric analysis (reference value: 2.64 to 3.23%). The format is functional.
The species entered for another test is Homo sapiens. In words: Antitumor activity against patient-derived breast cancer organoid assessed as phenotypic change at 5 uM incubated for 120 hrs by bright-field imaging microscopic analysis. It is filed as functional, tissue-based.
Test [31] is described as follows: Antitumor activity against patient-derived breast cancer organoid assessed as reduction in cell viability incubated for 120 hrs by CellTiter-Glo 3D assay. The format is functional, tissue-based. The note with it: Homo sapiens.

Serine/threonine-protein kinase AKT (Homo sapiens), sequence (P31749 whole entry, looked up): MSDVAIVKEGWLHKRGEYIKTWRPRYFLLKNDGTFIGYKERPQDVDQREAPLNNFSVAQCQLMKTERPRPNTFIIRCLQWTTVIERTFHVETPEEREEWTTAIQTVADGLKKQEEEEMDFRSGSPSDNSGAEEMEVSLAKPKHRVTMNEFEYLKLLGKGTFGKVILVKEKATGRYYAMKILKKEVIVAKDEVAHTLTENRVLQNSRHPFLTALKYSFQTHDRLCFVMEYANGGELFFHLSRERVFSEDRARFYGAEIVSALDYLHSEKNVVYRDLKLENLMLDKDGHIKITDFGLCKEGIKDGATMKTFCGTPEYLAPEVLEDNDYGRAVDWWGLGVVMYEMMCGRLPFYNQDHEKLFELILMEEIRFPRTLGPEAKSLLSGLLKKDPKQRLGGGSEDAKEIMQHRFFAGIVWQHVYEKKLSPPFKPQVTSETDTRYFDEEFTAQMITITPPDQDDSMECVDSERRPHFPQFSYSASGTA
Serine/threonine-protein kinase AKT (Homo sapiens), sequence (P31751 whole entry, looked up): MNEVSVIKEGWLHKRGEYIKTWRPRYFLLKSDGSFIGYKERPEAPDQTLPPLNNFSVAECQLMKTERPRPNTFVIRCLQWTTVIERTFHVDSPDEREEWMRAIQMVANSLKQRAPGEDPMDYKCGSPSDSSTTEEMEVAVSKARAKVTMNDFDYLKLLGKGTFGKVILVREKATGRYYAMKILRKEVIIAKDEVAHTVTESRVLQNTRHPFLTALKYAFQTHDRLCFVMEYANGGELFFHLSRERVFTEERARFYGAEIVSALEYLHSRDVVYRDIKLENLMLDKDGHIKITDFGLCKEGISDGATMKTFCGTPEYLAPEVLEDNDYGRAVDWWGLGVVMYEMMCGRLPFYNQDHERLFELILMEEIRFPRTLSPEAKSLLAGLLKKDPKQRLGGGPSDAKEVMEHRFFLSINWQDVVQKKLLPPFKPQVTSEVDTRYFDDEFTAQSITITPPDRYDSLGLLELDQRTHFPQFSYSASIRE
Serine/threonine-protein kinase AKT (Homo sapiens), sequence (Q9Y243 whole entry, looked up): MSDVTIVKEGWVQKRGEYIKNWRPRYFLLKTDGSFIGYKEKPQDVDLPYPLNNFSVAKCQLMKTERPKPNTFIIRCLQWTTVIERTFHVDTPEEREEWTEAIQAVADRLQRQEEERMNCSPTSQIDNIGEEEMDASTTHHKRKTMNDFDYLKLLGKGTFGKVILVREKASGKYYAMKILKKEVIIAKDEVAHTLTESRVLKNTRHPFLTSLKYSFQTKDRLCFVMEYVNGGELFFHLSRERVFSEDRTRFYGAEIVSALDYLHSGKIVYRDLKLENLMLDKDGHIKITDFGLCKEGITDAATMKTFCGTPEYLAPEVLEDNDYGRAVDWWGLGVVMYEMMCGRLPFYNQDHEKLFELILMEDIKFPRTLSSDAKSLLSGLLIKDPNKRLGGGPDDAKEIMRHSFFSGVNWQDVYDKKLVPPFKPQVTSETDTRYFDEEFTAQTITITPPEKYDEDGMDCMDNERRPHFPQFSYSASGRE
ALK tyrosine kinase receptor, sequence (Q9UM73 whole entry): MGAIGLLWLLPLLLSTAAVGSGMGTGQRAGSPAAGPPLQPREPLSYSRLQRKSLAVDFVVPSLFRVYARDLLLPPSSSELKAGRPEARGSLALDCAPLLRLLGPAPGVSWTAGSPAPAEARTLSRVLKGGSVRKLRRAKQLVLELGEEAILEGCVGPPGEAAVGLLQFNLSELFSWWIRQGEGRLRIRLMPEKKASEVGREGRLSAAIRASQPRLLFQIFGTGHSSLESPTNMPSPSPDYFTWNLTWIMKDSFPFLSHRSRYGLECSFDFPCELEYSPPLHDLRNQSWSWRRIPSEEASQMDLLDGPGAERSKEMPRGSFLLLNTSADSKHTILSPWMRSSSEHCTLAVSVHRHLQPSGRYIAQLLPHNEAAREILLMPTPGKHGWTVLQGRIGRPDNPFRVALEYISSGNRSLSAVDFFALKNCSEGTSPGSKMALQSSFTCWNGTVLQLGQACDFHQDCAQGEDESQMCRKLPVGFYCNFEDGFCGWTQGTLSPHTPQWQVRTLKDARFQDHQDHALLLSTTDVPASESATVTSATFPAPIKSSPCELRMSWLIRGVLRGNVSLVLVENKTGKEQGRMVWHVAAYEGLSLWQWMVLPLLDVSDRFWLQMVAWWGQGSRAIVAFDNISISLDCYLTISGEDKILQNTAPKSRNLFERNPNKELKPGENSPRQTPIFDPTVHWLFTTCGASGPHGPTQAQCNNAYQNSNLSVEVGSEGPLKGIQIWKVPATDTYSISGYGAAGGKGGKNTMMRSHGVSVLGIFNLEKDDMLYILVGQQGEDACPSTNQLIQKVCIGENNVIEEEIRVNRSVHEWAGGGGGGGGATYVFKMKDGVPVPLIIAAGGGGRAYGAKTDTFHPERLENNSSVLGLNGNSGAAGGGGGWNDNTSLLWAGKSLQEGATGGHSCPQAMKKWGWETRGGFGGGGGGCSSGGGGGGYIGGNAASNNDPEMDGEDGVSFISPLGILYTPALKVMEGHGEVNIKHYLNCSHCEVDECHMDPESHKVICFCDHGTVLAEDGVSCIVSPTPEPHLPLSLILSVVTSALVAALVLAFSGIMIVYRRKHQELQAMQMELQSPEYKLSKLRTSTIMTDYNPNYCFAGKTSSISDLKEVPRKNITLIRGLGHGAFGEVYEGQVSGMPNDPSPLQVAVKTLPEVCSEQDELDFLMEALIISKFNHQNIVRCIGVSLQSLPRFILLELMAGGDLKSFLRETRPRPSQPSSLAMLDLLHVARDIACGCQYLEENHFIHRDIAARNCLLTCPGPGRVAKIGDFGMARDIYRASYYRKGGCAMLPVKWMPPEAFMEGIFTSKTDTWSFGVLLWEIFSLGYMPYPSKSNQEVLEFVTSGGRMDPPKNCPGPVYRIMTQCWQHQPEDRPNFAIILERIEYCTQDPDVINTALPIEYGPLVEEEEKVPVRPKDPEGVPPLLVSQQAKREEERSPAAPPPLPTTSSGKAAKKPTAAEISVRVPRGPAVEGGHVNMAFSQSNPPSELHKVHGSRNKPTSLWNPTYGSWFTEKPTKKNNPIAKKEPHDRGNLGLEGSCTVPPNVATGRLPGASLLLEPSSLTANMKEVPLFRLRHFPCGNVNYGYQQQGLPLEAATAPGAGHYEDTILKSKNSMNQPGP

The IC50 is the midpoint of a concentration-inhibition curve. For `CCc1ccc2c(c1)c(=O)c(C(=O)Nc1ccc(Oc3ncnc4cc(OC)c(OC)cc34)c(F)c1)c(C)n2C`, the inhibition entry (with MDA-MB-231 [1]; in [17]) was “inactive” in each case. In addition, the viability at 0.0333 µM in the test on MDA-MB-231 [2] turned out to be 94.9%. In addition, the Activity with MDA-MB-231 [3] was 56.88%; in the test on MDA-MB-231 [4], 61.26%; with MDA-MB-231 [5] it was 26.91%; in the test with MDA-MB-231 [8], 52.76%; in the test on MDA-MB-231 [10] it was 16.56%; with MDA-MB-231 [12], 12.03%. Also, the Activity came to 1.8% in the test with MDA-MB-231 [13]; 9.32% in the test with MDA-MB-231 [14]; 3.02% with MDA-MB-231 [18]; 0.15% in the test with MDA-MB-231 [19]; 27.64% in the test on MDA-MB-231 [20]; 1.66% in the test on MDA-MB-231 [21]. Besides, the Activity was 0.41% with MDA-MB-231 [22]; 3.11% with MDA-MB-231 [23]; 24.87% with MDA-MB-231 [24]; 3.01% in the test on MDA-MB-231 [25]; 0.29% in the test with MDA-MB-231 [27]; 1.99% in the test on MDA-MB-231 [30]. The viability at 0.1 µM with MDA-MB-231 [6] amounted to 94.6%. Further, the IC50 was > 5 µM in the test on MDA-MB-231 [7], > 5 µM with MDA-MB-436, > 5 µM in the test with MDA-MB-453 and 4.92 nM in [26]. The result in the test with MDA-MB-231 [9], with MDA-MB-231 [11], in the test with MDA-MB-231 [28] and in the test on MDA-MB-231 [29] was inactive. The viability at 0.3 µM with MDA-MB-231 [15] is 95.1%. The inhibition entry in the test on MDA-MB-231 [16] was “Active”.
On to `CC(=O)O[C@H]1C(=O)[C@@]2(C)[C@H]([C@H](OC(=O)c3ccccc3)[C@]3(O)C[C@H](OC(=O)[C@H](O)[C@@H](NC(=O)c4ccccc4)c4ccccc4)C(C)=C1C3(C)C)[C@]1(OC(C)=O)CO[C@@H]1C[C@@H]2O` [PACLITAXEL], for which, in the test filed under Homo sapiens, the result was inactive. Besides, in [31], the IC50 was > 5 µM.
